Test results from patent publication US7829591B2, “Flavanone compound and uses thereof” (Pokka Corporation, priority 2003, dated 2010).

Experiments:
β-carotene fading test = format: biochemical; conditions: for Antioxidant Activity (%) from β-carotene Fading Test: 20 μM in reaction liquid, 60° C. for 60 minutes, absorbance 470 nm, average ± SD of three runs; for antioxidant activity (in words): comparison from Table 1
Method: β-carotene will fade due to the reaction of linoleic acid peroxide, which is produced by the autoxidation of linoleic acid, with a double bond in β-carotene. This phenomenon was utilized so as to determine the antioxidant activity of each of Compounds 1 to 4 and the like. That is, first of all, 2 ml of a 200 mg/ml solution of Tween-40 in chloroform, 0.4 ml of a 100 mg/ml solution of linoleic acid in chloroform, and 3 ml of a 0.1 mg/ml solution of β-carotene in chloroform were mixed, and thereafter the solvent was removed by using a nitrogen gas. Subsequently, 100 ml of distilled water was added thereto, and adequately stirred to obtain an emulsion. To 3 ml of this emulsion, ethanol was added to completely dissolve the solute in the solvent. Thereafter, each of Compounds 1 to 4 was dissolved in ethanol so as to prepare a sample solution having a concentration of 1.2 mM. 50 μl of the sample solution was mixed with the above emulsion wherein the solute had been completely dissolved so as to prepare a reaction liquid (or a sample reaction liquid). Then the concentration of each of Compounds 1 to 4 in the reaction liquid was 20 μM. The reaction liquid was incubated at 60° C. for 60 minutes. Then the absorbance of each of the reaction liquid before the incubation and the reaction liquid after the incubation was determined at 470 nm. Furthermore, BHT, α-tocopherol, or eriodictyol was used in place of Compounds 1 to 4 so as to determine the absorbance of the reaction liquid before and after incubation according to a similar procedure to the above-mentioned one. In addition, as a control, a reaction liquid (or a control reaction liquid) wherein no sample solution was contained was prepared so as to determine the absorbance of the reaction liquid before and after incubation according to a similar procedure to the above-mentioned one. The antioxidant activity (%) of each of the materials was calculated using the following calculation formula 2. Incidentally, each of values shown in Table 1 is the average value and standard deviation of values obtained from three runs. (Antioxidant Activity)=[{(Fading Rate of Control)−(Fading Rate of Sample Solution)}/(Fading Rate of Control)]×100 Calculation Formula 2
It should be noted that in the calculation formula 2, “Fading Rate of Control” is the natural logarithm of a value which is acquired by dividing the absorbance of the control reaction liquid before incubation by the absorbance of the control reaction liquid after incubation and further by dividing the resultant value by 60; and “Fading Rate of Sample Solution” is the natural logarithm of a value which is acquired by dividing the absorbance of the sample reaction liquid before incubation by the absorbance of the sample reaction liquid after incubation and further by dividing the resultant value by 60.

[1] = DPPH radical scavenging activity test; format: biochemical; conditions: for Radical Scavenging Activity (%) from DPPH Radical Scavenging Activity Test: 25 μM sample solution in ethanol, 1 h in dark, absorbance 517 nm, average ± SD of three runs
Method: DPPH (α,α-diphenyl-β-picrylhydradil) is a purple stable radical having a maximum absorption at 517 nm, which is converted into colorless hydrazine by gaining hydrogen. This color reaction was utilized so as to determine the radical scavenging activity of each of Compounds 1 to 4 and the like. That is, each of Compounds 1 to 4 was dissolved in ethanol to prepare 3 ml of a sample solution having a concentration of 25 μM. Thereafter, to each of the resultant sample solutions, 0.75 ml of a 0.5 mM DPPH solution (whose solvent was ethanol) was added and stirred, and reacted in a dark place for one hour, followed by the determination of an absorbance at 517 nm. Furthermore, in place of Compounds 1 to 4, BHT (butylated hydroxytoluene), α-tocopherol or eriodictyol was used so as to determine an absorbance according to a similar procedure to the above. Besides, instead of the above sample solutions, ethanol was used as a control so as to determine an absorbance according to a similar procedure to the above. Then the radical scavenging activity (%) of each of the materials was calculated using the following calculation formula 1. Incidentally, each of values shown in Table 1 is the average value and standard deviation of values obtained from three runs. (Radical Scavenging Activity)=[{(Absorbance of Control)−(Absorbance of Sample Solution)}/(Absorbance of Control)]×100 Calculation Formula 1

Row | Structure (SMILES) | Antioxidant Activity (%) from β-carotene Fading Test (β-carotene fading test) [%] | antioxidant activity (in words) (β-carotene fading test) | Radical Scavenging Activity (%) from DPPH Radical Scavenging Activity Test [1] [%] | radical scavenging activity (in words) ([1]; comparison from Table 1)
1 | CC(C)=CCC/C(C)=C/Cc1c([C@@H]2CC(=O)c3c(O)cc(O)cc3O2)ccc(O)c1O [Compound 1, 5,7,3′,4′-tetrahydroxy-2′-C-geranylflavanone] | 85.54 ± 2.24 | about the same high antioxidant activity as that of each of BHT, α-tocopherol, and eriodictyol | 55.35 ± 0.43 | –
2 | CC(C)=CCC/C(C)=C/Cc1cc([C@@H]2CC(=O)c3c(O)cc(O)cc3O2)cc(O)c1O [Compound 2, 5,7,3′,4′-tetrahydroxy-5′-C-geranylflavanone] | 78.07 ± 1.79 | about the same high antioxidant activity as that of each of BHT, α-tocopherol, and eriodictyol | 49.86 ± 0.96 | –
3 | CC(C)=CCC/C(C)=C/Cc1c(O)cc2c(c1O)C(=O)C[C@@H](c1ccc(O)c(O)c1)O2 [Compound 3, 5,7,3′,4′-tetrahydroxy-6-C-geranylflavanone] | 60.62 ± 1.16 | – | 64.00 ± 0.58 | highest radical scavenging activity
4 | CC(C)=CCC/C(C)=C/Cc1c([C@@H]2CC(=O)c3c(cc(O)c(CC=C(C)C)c3O)O2)ccc(O)c1O [Compound 4, 5,7,3′,4′-tetrahydroxy-6-(3′″,3′″-dimethylallyl)-2′-C-geranylflavanone] | 80.06 ± 0.29 | about the same high antioxidant activity as that of each of BHT, α-tocopherol, and eriodictyol | 50.79 ± 0.08 | –
